Measurements as given in BindingDB's records for doi:10.7270/Q2WQ02FK (The Scripps Research Institute Molecular Screening Center, 2013).

What follows are compounds tested against T1, T cell receptor alpha variable 4 (Homo sapiens, UniProt A0A0B4J268).
T1 sequence (A0A0B4J268 whole entry): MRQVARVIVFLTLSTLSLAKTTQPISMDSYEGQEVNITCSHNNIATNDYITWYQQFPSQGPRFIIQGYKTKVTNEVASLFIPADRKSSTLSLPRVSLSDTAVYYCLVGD

Question: `CC1=CC(/C=N/n2c(COc3ccccc3C)nc3ccccc3c2=O)C(=O)C([N+](=O)[O-])=C1` (configuration not stated) was tested. Which IC50 did it give?
Answer: The IC50 was greater than 94.1 µM.

Question: For `CC1=CC([N+](=O)[O-])=CC(/C=N/n2c(C)nc3ccccc3c2=O)C1=O` (configuration not stated) [MLS000778735], which IC50 is on record?
Answer: Its IC50 is greater than 94 µM.

Question: `CCc1n[nH]c(=S)n1N=CC1C=C(OC)C=C([N+](=O)[O-])C1=O` (configuration not stated) [(6E)-6-[[(3-ethyl-5-sulfanylidene-1H-1,2,4-triazol-4-yl)amino]methylidene]-4-methoxy-2-nitro-1-cyclohexa-2,4-dienone] was tested. Which IC50 did it give?
Answer: Its IC50 is 18.4 µM.

Question: `Cc1cc2cc(CNC(=O)c3ccc(C)c([N+](=O)[O-])c3)ccc2[nH]1` [MLS000724615] was tested. Which IC50 did it give?
Answer: Its IC50 is greater than 94.1 µM.

Question: Which IC50 does the source give for `Cc1cc(=O)oc2cc(OCC(=O)N/N=C/C3C=C([N+](=O)[O-])C=CC3=O)ccc12` (configuration not stated) [MLS000588734] here?
Answer: Its IC50 is greater than 94.1 µM.

Question: `O=C1CC(=O)c2c(O)cc(O)c(O)c2C1=O` [4,5,7,8-tetrahydroxy-1,2-naphthoquinone] was tested. Which IC50 did it give?
Answer: The IC50 was greater than 94.1 µM.

Question: For `O=C(N/N=C/C1C=C(Cl)C=C([N+](=O)[O-])C1=O)c1ccc2c(c1)OCO2` (configuration not stated) [N'-[(E)-(3-chloranyl-5-nitro-6-oxidanylidene-cyclohexa-2,4-dien-1-ylidene)methyl]-1,3-benzodioxole-5-carbohydrazide], which IC50 is on record?
Answer: Its IC50 is greater than 94.1 µM.

Question: Which IC50 does the source give for `CN1C(=O)C(C=NNC(=O)c2cc3ccccc3cc2O)c2ccccc21` (configuration not stated) [MLS000912237] here?
Answer: Its IC50 is greater than 94.1 µM.

Question: With `O=C(O)c1ccccc1NS(=O)(=O)c1ccc(N=NCc2ccc(O)c(O)c2)c([N+](=O)[O-])c1` [SMR001238114] as the compound, how does the IC50 read?
Answer: The IC50 was 32.5 µM.

Question: Which IC50 does the source give for `COC1=CC([N+](=O)[O-])=CC(/C=N/NC(=O)c2cc(C)nc3ccccc23)C1=O` (configuration not stated) here?
Answer: The IC50 was greater than 94.1 µM.

Question: How did the IC50 turn out when `O=C1C([N+](=O)[O-])=CC=CC1/C=N/n1cnc2scc(-c3ccc(Cl)cc3)c2c1=O` (configuration not stated) [SMR000314525] was run?
Answer: Its IC50 is greater than 94.1 µM.

Question: `CC1=CC([N+](=O)[O-])=CC(/C=N/NC(=O)C2COc3ccccc3O2)C1=O` (configuration not stated) [N'-[(E)-(5-methyl-3-nitro-6-oxocyclohexa-2,4-dien-1-ylidene)methyl]-2,3-dihydro-1,4-benzodioxine-3-carbohydrazide] was tested. Which IC50 did it give?
Answer: The IC50 was greater than 94.2 µM.

Question: For `O=C1C([N+](=O)[O-])=CC(Cl)=CC1C=NNC(=S)Nc1ccc(S(=O)(=O)N2CCOCC2)cc1` (configuration not stated) [1-[[(E)-(3-chloro-5-nitro-6-oxo-1-cyclohexa-2,4-dienylidene)methyl]amino]-3-[4-(4-morpholinylsulfonyl)phenyl]thiourea], which IC50 is on record?
Answer: Its IC50 is greater than 94.1 µM.

Question: For `Cc1c(NC(=S)NN=CC2C=C([N+](=O)[O-])C=CC2=O)c(=O)n(-c2ccccc2)n1C` (configuration not stated) [SMR000415003], which IC50 is on record?
Answer: The IC50 was greater than 94.1 µM.

Question: How did the IC50 turn out when `O=C(N/N=C/C1C=C([N+](=O)[O-])C=CC1=O)c1cccc(N2CCCC2=O)c1` (configuration not stated) was run?
Answer: Its IC50 is greater than 94.1 µM.

Question: For `Cc1cc(C(=O)N/N=C/C2C=C(Br)C=C([N+](=O)[O-])C2=O)c2ccccc2n1` (configuration not stated) [MLS000585468], which IC50 is on record?
Answer: The IC50 was greater than 94.1 µM.

Question: With `CC1=CC(/C=N/n2c(CO[N-][C+](C)c3ccccc3)nc3ccccc3c2=O)C(=O)C([N+](=O)[O-])=C1` (configuration not stated) as the compound, how does the IC50 read?
Answer: The IC50 was greater than 94.1 µM.

Question: `COc1ccc(CC(=O)N/N=C/C2C=C([N+](=O)[O-])C=C(Br)C2=O)cc1` (configuration not stated) was tested. Which IC50 did it give?
Answer: The IC50 was greater than 94.1 µM.

Question: For `O=C(NN=CC1=CC(=O)C(=O)CC1)NN=CC1=CC(=O)C(=O)CC1` [1,3-bis[[(Z)-(3-hydroxy-4-oxocyclohexa-2,5-dien-1-ylidene)methyl]amino]urea], which IC50 is on record?
Answer: The IC50 was 1.03 µM.

Question: With `O=C(N/N=C/C1C=CC=C([N+](=O)[O-])C1=O)c1cccs1` (configuration not stated) as the compound, how does the IC50 read?
Answer: The IC50 was greater than 94.1 µM.

Question: For `O=C(CNC(=O)c1ccccc1Br)N/N=C/C1C=C([N+](=O)[O-])C=C(Br)C1=O` (configuration not stated) [2-bromanyl-N-[2-[2-[(E)-(5-bromanyl-3-nitro-6-oxidanylidene-cyclohexa-2,4-dien-1-ylidene)methyl]hydrazinyl]-2-oxidanylidene-ethyl]benzamide], which IC50 is on record?
Answer: The IC50 was greater than 94.1 µM.

Question: With `O=C(N/N=C/C1C=C([N+](=O)[O-])C=C([N+](=O)[O-])C1=O)/C(=C\c1cccs1)NC(=O)c1ccccc1` (configuration not stated) [SMR000207704] as the compound, how does the IC50 read?
Answer: The IC50 was greater than 94.1 µM.

Question: With `O=C(NC(C(=O)NN=CC1C=C([N+](=O)[O-])C=CC1=O)c1n[nH]c(=O)c2ccccc12)c1ccccc1` (configuration not stated) [N-[2-[2-[(E)-(3-nitro-6-oxidanylidene-cyclohexa-2,4-dien-1-ylidene)methyl]hydrazinyl]-2-oxidanylidene-1-(4-oxidanylidene-3H-phthalazin-1-yl)ethyl]benzamide] as the compound, how does the IC50 read?
Answer: The IC50 was greater than 94.1 µM.

Question: For `Nc1nnc(CC(=O)N/N=C/C2C=C([N+](=O)[O-])C=CC2=O)s1` (configuration not stated) [2-(5-amino-1,3,4-thiadiazol-2-yl)-N'-[(E)-(3-nitro-6-oxo-1-cyclohexa-2,4-dienylidene)methyl]acetohydrazide], which IC50 is on record?
Answer: Its IC50 is greater than 94.1 µM.

Question: How did the IC50 turn out when `CCOC(=O)c1c(C)[nH]c(C(=O)N/N=C/C2C=C([N+](=O)[O-])C=CC2=O)c1C` (configuration not stated) [ethyl 2,4-dimethyl-5-[[[(E)-(3-nitro-6-oxocyclohexa-2,4-dien-1-ylidene)methyl]amino]carbamoyl]-1H-pyrrole-3-carboxylate] was run?
Answer: The IC50 was greater than 94.1 µM.

Question: For `Oc1c(Br)cc(CC=Nc2cc(O)c3cccnc3c2O)cc1Br` [7-[2-(3,5-dibromo-4-hydroxyphenyl)ethylamino]quinoline-5,8-dione], which IC50 is on record?
Answer: The IC50 was 18.8 µM.

Question: With `Cc1ccccc1C(=O)Nc1cccc(C(=O)N/N=C/C2C=C(Cl)C=C([N+](=O)[O-])C2=O)c1` (configuration not stated) [N-(3-{[(2E)-2-(5-chloro-2-hydroxy-3-nitrobenzylidene)hydrazino]carbonyl}phenyl)-2-methylbenzamide] as the compound, how does the IC50 read?
Answer: The IC50 was greater than 94.1 µM.

Question: For `CC(NNC(=O)c1ccc(-c2ccccc2)cc1)=C1C(=O)c2ccccc2C1=O` [N-[(E)-1-(1,3-dioxoinden-2-yl)ethylideneamino]-4-phenylbenzamide], which IC50 is on record?
Answer: The IC50 was greater than 94.1 µM.

Question: With `COC1=CC(=O)C(/C=N/NC(=O)c2ccncc2)C(OC)=C1[N+](=O)[O-]` (configuration not stated) [MLS000673335] as the compound, how does the IC50 read?
Answer: Its IC50 is greater than 94.1 µM.

Question: How did the IC50 turn out when `O=C(N/N=C/C1C=C(Cl)C=C([N+](=O)[O-])C1=O)c1cccc(S(=O)(=O)N2CCOCC2)c1` (configuration not stated) [MLS002155639] was run?
Answer: Its IC50 is greater than 94.1 µM.

Question: With `O=Nc1[nH]c(=O)c(CC(=O)c2ccccc2)nc1NO` [SMR000539633] as the compound, how does the IC50 read?
Answer: The IC50 was greater than 94.2 µM.

Question: With `Cc1cc(C(=O)NN=CC2C=C(Cl)C=C([N+](=O)[O-])C2=O)[nH]n1` (configuration not stated) [SMR000414694] as the compound, how does the IC50 read?
Answer: Its IC50 is greater than 94.1 µM.

Question: How did the IC50 turn out when `C=CCN1C(=O)/C(=N\NC(=O)CNC(=O)/C=C/c2ccco2)c2ccccc21` [(E)-N-[1-Allyl-2-oxo-1,2-dihydro-indol-(3Z)-ylidene-hydrazinocarbonylmethyl]-3-furan-2-yl-acrylamide] was run?
Answer: The IC50 was greater than 94.1 µM.

Question: With `O=C1NC(=O)N(Cc2ccco2)C(=O)C1=CNNC(=O)c1ccccc1` [N'-[(E)-[1-(furan-2-ylmethyl)-2,4,6-tris(oxidanylidene)-1,3-diazinan-5-ylidene]methyl]benzohydrazide] as the compound, how does the IC50 read?
Answer: Its IC50 is greater than 94.2 µM.

Question: Which IC50 does the source give for `O=C1C=CC([N+](=O)[O-])=CC1/C=N/n1c(COc2ccccc2)nc2ccccc2c1=O` (configuration not stated) [3-[[(E)-(3-nitro-6-oxocyclohexa-2,4-dien-1-ylidene)methyl]amino]-2-(phenoxymethyl)quinazolin-4-one] here?
Answer: Its IC50 is greater than 94.1 µM.

Question: For `Cc1ccc(C(=O)Nc2nc(C(C)(C)C)cs2)s1` [N-(4-tert-butyl-2-thiazolyl)-5-methyl-2-thiophenecarboxamide], which IC50 is on record?
Answer: The IC50 was greater than 94.1 µM.

Question: `COc1ccc(C(=O)CC=NNC(=O)c2ccc(Cl)cc2)cc1` [SMR000499516] was tested. Which IC50 did it give?
Answer: Its IC50 is greater than 94.1 µM.

Question: How did the IC50 turn out when `O=C(N/N=C/C1C=C([N+](=O)[O-])C=CC1=O)/C(=C\c1cccs1)NC(=O)c1ccccc1` (configuration not stated) [MLS000332530] was run?
Answer: Its IC50 is greater than 94.1 µM.

Question: How did the IC50 turn out when `CCOC(=O)C1C(CC)=Nc2ccccc2N=C1NC(=O)Nc1ccc(Cl)c(Cl)c1` (configuration not stated) was run?
Answer: The IC50 was 10.7 µM.

Question: How did the IC50 turn out when `O=C1NC(=O)N(CCc2ccccc2)C(=O)C1=CNNC(=O)c1ccccc1O` [2-hydroxy-N'-[(E)-[2,4,6-trioxo-1-(2-phenylethyl)-1,3-diazinan-5-ylidene]methyl]benzohydrazide] was run?
Answer: The IC50 was greater than 94 µM.

Question: With `CCC(NNC(=O)c1ccccc1O)=C1C(=O)NC(=O)N(Cc2ccccc2)C1=O` [2-hydroxy-N'-[(1E)-1-[2,4,6-trioxo-1-(phenylmethyl)-1,3-diazinan-5-ylidene]propyl]benzohydrazide] as the compound, how does the IC50 read?
Answer: Its IC50 is greater than 94.1 µM.

Question: How did the IC50 turn out when `Oc1ccc(CN=Nc2ncnc3c2ncn3Cc2ccccc2)cc1O` [(4Z)-2-oxidanyl-4-[[2-[9-(phenylmethyl)purin-6-yl]hydrazinyl]methylidene]cyclohexa-2,5-dien-1-one] was run?
Answer: The IC50 was greater than 94.1 µM.

Question: With `Cc1cc(C(=O)N/N=C/C2C=C(Cl)C=C([N+](=O)[O-])C2=O)c2ccccc2n1` (configuration not stated) [N'-[(E)-(3-chloranyl-5-nitro-6-oxidanylidene-cyclohexa-2,4-dien-1-ylidene)methyl]-2-methyl-quinoline-4-carbohydrazide] as the compound, how does the IC50 read?
Answer: Its IC50 is greater than 94.1 µM.

Question: `O=[N+]([O-])c1cc(Br)c(O)c(CN=Nc2nnnn2-c2cccc3ccccc23)c1` [(6E)-2-bromo-6-[[2-(1-naphthalen-1-yltetrazol-5-yl)hydrazinyl]methylidene]-4-nitrocyclohexa-2,4-dien-1-one] was tested. Which IC50 did it give?
Answer: Its IC50 is greater than 94.1 µM.

Question: `O=C(CSc1nc2ccccc2s1)N/N=C/C1C=C([N+](=O)[O-])C=CC1=O` (configuration not stated) [MLS000777065] was tested. Which IC50 did it give?
Answer: Its IC50 is greater than 94.1 µM.

Question: Which IC50 does the source give for `O=C1C=CC([N+](=O)[O-])=CC1C=NNC(=S)Nc1ccc(Cl)cc1Cl` (configuration not stated) [MLS000777079] here?
Answer: Its IC50 is greater than 94.1 µM.

Question: How did the IC50 turn out when `O=C1NC(=O)N(Cc2ccco2)C(=O)C1=CNNC(=O)c1ccccc1O` [N'-[(E)-[1-(furan-2-ylmethyl)-2,4,6-tris(oxidanylidene)-1,3-diazinan-5-ylidene]methyl]-2-oxidanyl-benzohydrazide] was run?
Answer: Its IC50 is greater than 94 µM.
